Patent publication US5484780A, “Angiotensin II antagonists” (Eli Lilly and Company, priority 1994, dated 1996)
“And” between values parts separate entries of the source, which are not always exact repeats. Identical values can stand only once. Each block holds one compound with its values, some of them ahead of it.

Biological target: T1, angiotensin-induced vasoconstriction (rabbit aorta) (Oryctolagus cuniculus, UniProt P34976)
T1 construct: The thoracic aortas were removed and cleaned of excess fat and connective tissue; from tissue; host or cells: thoracic aorta rings of New Zealand white rabbits (animals from Hazelton)
T1 sequence (P34976 1-359): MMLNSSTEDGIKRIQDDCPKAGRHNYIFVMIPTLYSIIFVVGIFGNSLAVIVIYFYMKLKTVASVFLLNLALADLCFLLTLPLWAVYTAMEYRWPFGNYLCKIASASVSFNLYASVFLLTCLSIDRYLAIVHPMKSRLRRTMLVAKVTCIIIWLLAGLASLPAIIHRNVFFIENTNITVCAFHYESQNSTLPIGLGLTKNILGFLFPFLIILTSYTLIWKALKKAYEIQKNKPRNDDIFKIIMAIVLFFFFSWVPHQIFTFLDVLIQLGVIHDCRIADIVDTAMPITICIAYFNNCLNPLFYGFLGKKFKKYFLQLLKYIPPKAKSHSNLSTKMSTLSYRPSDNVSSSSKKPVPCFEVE
Experiment: Rabbit Aorta Test System: antagonism of angiotensin II contraction of aortic rings
Design: species or system New Zealand white rabbits
Conditions: contraction to AII 10^-10 to 10^-7 M, 30 minutes incubation with compound; pA2 = -log KB
Experimental: As previously discussed, the compounds of Formula I are potent effective antagonists of angiotensin II. The ability of representative compounds of Formula I to block angiotensin II receptor binding was determined using the adrenal glomerulosa assay. The ability to antagonize angiotensin-induced vasoconstriction was evaluated in the rabbit aorta test system.
New Zealand white rabbits (Hazelton, 2-3 kg) were sacrificed by cervical dislocation. The thoracic aortas were removed and cleaned of excess fat and connective tissue. Rings of tissue (3 mm wide) were mounted in 10 ml tissue baths between 2 L-shaped stainless steel hooks. The lower hook was attached to a stationary rod. The upper hook was attached to a force displacement transducer (Grass model FT.03). The bath chambers were maintained at 37° C., aerated with 95% 02 /5% C02, and contained physiological solution of the following composition (mM): NaCl, 117; glucose, 5.6; NaH2 PO4, 1.0; MgS04, 0.7; KCl, 5.2; CaCl2, 1.8; NaHCO3, 26; and phentolamine HCl, 0.003.
Rings were equilibrated for 1 hour with 2 g of tension. During the equilibration period, the tissues were washed by overflow every 15 minutes. Rings were then exposed to 10^-8 M angiotensin II (AII) and were allowed to contract until a steady state was reached. Tissues were then washed every 15 minutes for 1 hour. This was repeated every hour until the AII response stabilized. A cumulative concentration response curve to AII (10^-10 to 10^-7 M) was then obtained. At the conclusion of the concentration response curve, tissues were washed every 2 minutes until baseline tension was reached, then every 15 minutes for 30 minutes. Compounds were added in a volume of 10 μl DMSO and allowed to incubate for 30 minutes before repeating the concentration response curve to AII. Contractions to AII were expressed as a percent of the maximum contraction obtained in the control curve (the first AII concentration response curve). EC50 's (concentration that contracted the tissues to 1/2 the control maximum) for each curve were calculated using a 4 parameter logistics model (NonLin, SAS Institute). Potency data for each compound tested are expressed as the pA2 (defined as-log KB, where KB =[molar concentration of antagonist]/[(EC50 AII with antagonist/EC50 AII without antagonist)-1]).

SMILES: CCCCC(C(=O)N1C[C@@H](Oc2ccccc2)C[C@H]1C(=O)O)n1cnc(NC(=O)c2ccccc2S(=O)(=O)O)c1 (single isomer, unassigned) [Example 14, 1-[1-oxo-2-[4-(2-sulfobenzoyl)amino-1H-imidazol-1-yl]hexyl]-4-cis-phenoxy-L-proline]
Kb: 31.6 nM and 126 nM

SMILES: CCCCCCC(C(=O)N1C[C@@H](Oc2ccc(OC)cc2)C[C@H]1C(=O)O)n1cnc(NC(=O)c2ccccc2S(=O)(=O)O)c1 (single isomer, unassigned) [Example 18]
Kb: 0.2 nM

SMILES: CCCCCCC(C(=O)N1C[C@@H](Oc2ccccc2)C[C@H]1C(=O)O)n1cnc(NC(=O)c2cccc(O)c2C(=O)O)c1 (single isomer, unassigned) [Example 20, 1-[1-oxo-2-[4-(2-carboxy-3-hydroxybenzoyl)amino-1H-imidazol-1-yl]octyl]-4-cis-phenoxy-L-Proline]
Kb: 3.16 nM

SMILES: CCCCCCC(C(=O)N1CCC[C@H]1C(=O)O)n1cnc(NC(=O)c2ccccc2S(=O)(=O)O)c1 (single isomer, unassigned) [Example 21, 1-[1-Oxo-2-[4-(2-sulfobenzoyl)amino-1H-imidazol-1-yl]octyl]-L-proline]
Kb: 63.1 nM and 501 nM

SMILES: CCCCCCC(C(=O)N1CCNC1=S)n1cnc(NC(=O)c2ccccc2S(=O)(=O)O)c1 (centres unmarked) [Example 6, 2-[[[1-[1-[(2-thioxo-1-imidazolidinyl)carbonyl]-heptyl]-1H-imidazol-4-yl]amino]carbonyl]benzenesulfonic acid]
Rabbit Aorta (pA2): 6.3

SMILES: CCCCCCC(C(=O)N1CCC[C@@H]1C(=O)O)n1cnc(NC(=O)c2ccccc2S(=O)(=O)O)c1 (some centres unmarked) [Example 11]
Kb: 200 nM and 251 nM

SMILES: O=C(Nc1cn(C(CCCCC(F)(F)F)C(=O)N2C[C@@H](Oc3ccccc3)C[C@H]2C(=O)O)cn1)c1ccccc1S(=O)(=O)O (stereo partly drawn) [Example 16, 1-[1-Oxo-2-[4-(2-sulfobenzoyl)amino-1H-imidazol-1-yl]-7,7,7-trifluoroheptyl]-4-cis-phenoxy-L-proline]
Kb: 50.1 nM

SMILES: CCCCCCC(C(=O)N1C[C@@H](Oc2cccnc2)C[C@H]1C(=O)O)n1cnc(NC(=O)c2ccccc2S(=O)(=O)O)c1 (stereo partly drawn) [Example 17, 1-[1-Oxo-2-[4-(2-sulfobenzoyl)amino-1H-imidazol-1-yl]octyl]4-cis-(3-pyridyloxy)-L-proline]
Kb: 15.8 nM

SMILES: CCCCCC[C@H](C(=O)N1C[C@@H](Oc2ccc(C)cc2)C[C@H]1C(=O)O)n1cnc(NC(=O)c2ccccc2S(=O)(=O)O)c1 [Example 22]
Kb: 0.398 nM

SMILES: CCCCCC[C@H](C(=O)N1C[C@@H](Oc2ccc(CC)cc2)C[C@H]1C(=O)O)n1cnc(NC(=O)c2ccccc2S(=O)(=O)O)c1 [Example 23]
Kb: 1.58 nM

SMILES: CCCCCC[C@H](C(=O)N1C[C@@H](Oc2ccc(C(C)C)cc2)C[C@H]1C(=O)O)n1cnc(NC(=O)c2ccccc2S(=O)(=O)O)c1 [Example 24]
Kb: 25.1 nM

SMILES: CCCCCC[C@H](C(=O)N1C[C@@H](Oc2ccc(C(C)(C)C)cc2)C[C@H]1C(=O)O)n1cnc(NC(=O)c2ccccc2S(=O)(=O)O)c1 [Example 25]
Kb: 126 nM

SMILES: CCCCCC[C@H](C(=O)N1C[C@@H](Oc2ccc(C3CCCC3)cc2)C[C@H]1C(=O)O)n1cnc(NC(=O)c2ccccc2S(=O)(=O)O)c1 [Example 26]
Kb: 2.51 nM

SMILES: CCCCCC[C@H](C(=O)N1C[C@@H](Oc2ccc(F)cc2)C[C@H]1C(=O)O)n1cnc(NC(=O)c2ccccc2S(=O)(=O)O)c1 [Example 28]
Rabbit Aorta (pA2): 8.7

SMILES: CCCCCC[C@H](C(=O)N1C[C@@H](Oc2ccc(SC)cc2)C[C@H]1C(=O)O)n1cnc(NC(=O)c2ccccc2S(=O)(=O)O)c1 [Example 30]
Kb: 0.631 nM

SMILES: CCCCCC[C@H](C(=O)N1C[C@@H](Oc2ccc(C(=O)O)cc2)C[C@H]1C(=O)O)n1cnc(NC(=O)c2ccccc2S(=O)(=O)O)c1 [Example 33]
Kb: 1 nM

SMILES: CCCCCC[C@H](C(=O)N1C[C@@H](Oc2ccc(C(N)=O)cc2)C[C@H]1C(=O)O)n1cnc(NC(=O)c2ccccc2S(=O)(=O)O)c1 [Example 34]
Kb: 3.16 nM

SMILES: CCCCCC[C@H](C(=O)N1C[C@@H](Oc2ccc(CO)cc2)C[C@H]1C(=O)O)n1cnc(NC(=O)c2ccccc2S(=O)(=O)O)c1 [Example 35]
Kb: 2 nM

SMILES: CCCCCC[C@H](C(=O)N1C[C@@H](Oc2ccc(CCC(=O)O)cc2)C[C@H]1C(=O)O)n1cnc(NC(=O)c2ccccc2S(=O)(=O)O)c1 [Example 37]
Kb: 0.398 nM

SMILES: CCCCCC[C@H](C(=O)N1C[C@@H](Oc2ccc(-n3ccnc3)cc2)C[C@H]1C(=O)O)n1cnc(NC(=O)c2ccccc2S(=O)(=O)O)c1 [Example 38]
Kb: 1.26 nM

SMILES: CCCCCC[C@H](C(=O)N1C[C@@H](Oc2ccc(S(=O)(=O)N3CCCC3)cc2)C[C@H]1C(=O)O)n1cnc(NC(=O)c2ccccc2S(=O)(=O)O)c1 [Example 39]
Kb: 1 nM

SMILES: CCCCCC[C@H](C(=O)N1C[C@@H](Oc2ccc(CCP(=O)(O)O)cc2)C[C@H]1C(=O)O)n1cnc(NC(=O)c2ccccc2S(=O)(=O)O)c1 [Example 42]
Kb: 1.26 nM

SMILES: CCCCCC[C@H](C(=O)N1C[C@@H](Oc2ccc(OP(=O)(O)O)cc2)C[C@H]1C(=O)O)n1cnc(NC(=O)c2ccccc2S(=O)(=O)O)c1 [Example 43]
Kb: 0.794 nM

SMILES: CCCCCC[C@H](C(=O)N1C[C@@H](Oc2ccc(P(=O)(O)O)cc2)C[C@H]1C(=O)O)n1cnc(NC(=O)c2ccccc2S(=O)(=O)O)c1 [Example 44]
Kb: 5.01 nM

SMILES: CCCCCC[C@H](C(=O)N1C[C@@H](Oc2ccc(-n3cncn3)cc2)C[C@H]1C(=O)O)n1cnc(NC(=O)c2ccccc2S(=O)(=O)O)c1 [Example 45]
Kb: 0.251 nM

SMILES: CCCCCC[C@H](C(=O)N1C[C@@H](Oc2ccc(OCC)cc2)C[C@H]1C(=O)O)n1cnc(NC(=O)c2ccccc2S(=O)(=O)O)c1 [Example 48]
Kb: 0.631 nM

Other lines, results leading:

Kb: 1.26 nM
SMILES: CCCCCCC(C(=O)N1C[C@@H](Oc2ccc(O)cc2)C[C@H]1C(=O)O)n1cnc(NC(=O)c2ccccc2S(=O)(=O)O)c1 (single isomer, unassigned) [Example 19]

Kb: 63.1 nM and 126 nM
SMILES: CCCCCC(C(=O)N1C[C@@H](Oc2ccccc2)C[C@H]1C(=O)O)n1cnc(NC(=O)c2ccccc2S(=O)(=O)O)c1 (stereo partly drawn) [Example 13, 1-[1-oxo-2-[4-(2-sulfobenzoyl)amino-1H-imidazol-1-yl]heptyl]-4-cis-phenoxy-L-proline]

Kb: 10 nM
SMILES: CCCCCC[C@H](C(=O)N1C[C@@H](Oc2ccc(-c3ccccc3)cc2)C[C@H]1C(=O)O)n1cnc(NC(=O)c2ccccc2S(=O)(=O)O)c1 [Example 27]

Rabbit Aorta (pA2): 7.5
SMILES: CCCCCC[C@H](C(=O)N1C[C@@H](Oc2ccc(C(F)(F)F)cc2)C[C@H]1C(=O)O)n1cnc(NC(=O)c2ccccc2S(=O)(=O)O)c1 [Example 29]

Rabbit Aorta (pA2): 8.9
SMILES: CCCCCC[C@H](C(=O)N1C[C@@H](Oc2ccc([S+](C)[O-])cc2)C[C@H]1C(=O)O)n1cnc(NC(=O)c2ccccc2S(=O)(=O)O)c1 (some centres unmarked) [Example 31]

Kb: 1.26 nM
SMILES: CCCCCC[C@H](C(=O)N1C[C@@H](Oc2ccc(S(C)(=O)=O)cc2)C[C@H]1C(=O)O)n1cnc(NC(=O)c2ccccc2S(=O)(=O)O)c1 [Example 32]

Kb: 0.398 nM
SMILES: CCCCCC[C@H](C(=O)N1C[C@@H](Oc2ccc(CC(=O)O)cc2)C[C@H]1C(=O)O)n1cnc(NC(=O)c2ccccc2S(=O)(=O)O)c1 [Example 36]

Kb: 0.501 nM
SMILES: CCCCCC[C@H](C(=O)N1C[C@@H](Oc2ccc(S(=O)(=O)NC)cc2)C[C@H]1C(=O)O)n1cnc(NC(=O)c2ccccc2S(=O)(=O)O)c1 [Example 40]

Kb: 0.158 nM
SMILES: CCCCCC[C@H](C(=O)N1C[C@@H](Oc2ccc(-c3nc(C(=O)O)co3)cc2)C[C@H]1C(=O)O)n1cnc(NC(=O)c2ccccc2S(=O)(=O)O)c1 [Example 41]

Kb: 2 nM
SMILES: CCCCCC[C@H](C(=O)N1C[C@@H](Oc2ccc(CC(=O)N(C)CC(=O)O)cc2)C[C@H]1C(=O)O)n1cnc(NC(=O)c2ccccc2S(=O)(=O)O)c1 [Example 46]

Kb: 1 nM
SMILES: CCCCCC[C@H](C(=O)N1C[C@@H](Oc2ccc(CC(=O)N3CCC[C@H]3C(=O)O)cc2)C[C@H]1C(=O)O)n1cnc(NC(=O)c2ccccc2S(=O)(=O)O)c1 [Example 47]

Kb: 2.51 nM
SMILES: CCCCCC[C@H](C(=O)N1C[C@@H](Oc2ccc(OC(C)C)cc2)C[C@H]1C(=O)O)n1cnc(NC(=O)c2ccccc2S(=O)(=O)O)c1 [Example 49]
